Assay results reported in patent US9006205B2, “Antisense oligonucleotides against neutral sphingomyelinase and neutral sphingomyelinase inhibitor GW4869 for degenerative neurological disorders” (Rush University Medical Center, priority 2011, dated 2015).

Tests used:
Format in all cases: cell-based
primary human neurons [1] = assay: TUNEL apoptosis of neurons challenged by oligomeric Aβ-activated astrocytes, trans-well; details: neurons pretreated 40 h with 1 μM oligonucleotide; 6 h
Experimental: Fragmented DNA was detected in situ by the terminal deoxynucleotidyltransferase-mediated binding of 3′-OH ends of DNA fragments generated in response to fibrillar Aβ1-42, using a commercially available kit (TdT FragEL™) from Calbiochem. Briefly, cover slips were treated with 20 μg/ml proteinase K for 15 min at room temperature and washed prior to terminal deoxynucleotidyltransferase staining.
In FIG. 5A, primary astrocytes were stimulated with fibrillar Aβ1-42, oligomeric Aβ1-42 and reverse peptide Aβ42-1 for 24 h followed by double-labeling of GFAP and iNOS. In FIG. 5B, primary human astrocytes seeded in inserts were stimulated with a combination of I μM of oligomeric Aβ1-42 and 10 ng/ml of IL-Iβ in serum free media. […] After 6 h, neuronal apoptosis was monitored by TUNEL. In FIG. 5C, TUNEL-positive cells were counted manually in four different images of each of three coverslips by three individuals blinded to the experiment. Values obtained from the control group (1) served as 100%, and data obtained from other three groups i.e. the oligomeric Aβ-activated astrocytes (OAA) group (2), the ASO-OAA group (3), and the ScO-OAA group (4) was calculated as percent of control accordingly. Results are mean+S.D. of three different experiments. ^ap<0.001 vs control; ^bp<0.001 vs OAA.

primary human astroglia = assay: NO synthesis (nitrite, Griess reagent) in primary human astroglia; details: astroglia pretreated 40 h with oligonucleotide; nitrite after 24 h of stimulation
Method in brief: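 Primary human astroglia pretreated 40 h with antisense or scrambled oligonucleotides against N-SMase and A-SMase, then stimulated with fibrillar Aβ plus IL-1β under serum-free conditions. Nitrite was measured in supernatants by Griess reagent after 24 h of stimulation.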

primary human neurons [2] = assay: TUNEL apoptosis of neurons challenged by (fibrillar Aβ+IL-1β)-activated astrocytes, astrocyte-neuron trans-well; details: neurons pretreated 40 h with 1 μM oligonucleotide; 6 h with (fibrillar Aβ+IL-1β)-activated astrocytes
Experimental: Primary human astrocytes were grown to confluency on inserts. After 24 h of stimulation by the combination of Aβ (1 μM) and IL-Iβ (10 ng/ml), inserts were washed thrice with HBSS and then placed onto the wells containing primary human neurons. Therefore, in this trans-well model, although neurons and astrocytes face each other, they are separable and the effect of soluble factors released from activated astrocytes on neurons can be studied allowing analysis of neuronal and glial populations separately.
Fragmented DNA was detected in situ by the terminal deoxynucleotidyltransferase-mediated binding of 3′-OH ends of DNA fragments generated in response to fibrillar Aβ1-42, using a commercially available kit (TdT FragEL™) from Calbiochem. […]
Primary human neurons were incubated with antisense (ASO) and scrambled oligonucleotides (ScO) against N-SMase (A) and A-SMase (FIG. 2B). After 48 h, neurons were analyzed for protein expression of N-SMase and A-SMase. […] After 6 h of treatment with activated astrocytes, apoptotic events in neurons were detected by TUNEL. In FIG. 2D, TUNEL-positive cells were counted manually in four different images of each of three coverslips by three individuals blinded to the experiment. […] Values obtained from the control group served as 100%, and data obtained in other groups were calculated as percent of control accordingly. […]

N-SMase = assay: Western blot of N-SMase protein after antisense knockdown in primary human neurons; details: 48 h with oligonucleotide
Experimental: Because these ASOs have become a very critical part of our study, the efficacy of N-SMase and A-SMase ASOs in inhibiting the protein expression of N-SMase and A-SMase was checked by western blot. […] Next, the effect of antisense knockdown of neuronal N-SMase and/or A-SMase on activated glia-induced neuronal apoptosis by TUNEL was investigated. […] As evidenced by a decrease In MTT metabolism, activated astroglia reduced neuronal viability (FIG. 2E).
Primary human neurons were incubated with antisense (ASO) and scrambled oligonucleotides (ScO) against N-SMase (A) and A-SMase (FIG. 2B). After 48 h, neurons were analyzed for protein expression of N-SMase and A-SMase. In FIG. 2C, primary human astrocytes seeded in inserts were stimulated by the combination of Aβ and IL-1β as described above. […] After 6 h of treatment with activated astrocytes, apoptotic events in neurons were detected by TUNEL. In FIG. 2D, TUNEL-positive cells were counted manually in four different images of each of three coverslips by three individuals blinded to the experiment. In FIG. 2E, after 18 h of stimulation, cell viability was examined by the metabolism of MTT and the release of LDH. […] Cell viability was checked by MTT (FIG. 2F) and LDH (FIG. 2G). Values obtained from the control group served as 100%, and data obtained in other groups were calculated as percent of control accordingly. […]

5′- CAGCGAGCCCGTCCACCAGCC -3′ (DNA, all phosphorothioate, methylation of C not given here) [ASO against N-SMase, ID; NO.: 12]
oligomeric Aβ-activated astrocyte-induced apoptosis of human neurons (TUNEL) (primary human neurons [1]): blocked
(Aβ+IL-1β)-induced production of NO (primary human astroglia): markedly abrogated
protection of neurons from activated astrocyte-induced apoptosis (TUNEL) (primary human neurons [2]): markedly protected
level of N-SMase protein (N-SMase): effectively inhibited
